# Assay results published in patent US20060166996A1, “Phthalazine derivatives as phosphodiesterase 4 inhibitors” (Zambon Group S.P.A., priority 2002, published 2006).
# Experiments:
# PDE 2 = biological target: T1, PDE 2 (Rattus norvegicus, UniProt Q01062); assay: PDE 2 enzyme inhibition (SPA); format: biochemical; conditions: PDE 2 from murine PC12 cells; read-out: PDE 2 IC 50
# T1 construct: Fractions containing PDE 2 enzyme activity were pooled; endogenous in cells; host or cells: PC12 cells (Istituto Zooprofilattico Brescia)
# T1 sequence (Q01062 1-928): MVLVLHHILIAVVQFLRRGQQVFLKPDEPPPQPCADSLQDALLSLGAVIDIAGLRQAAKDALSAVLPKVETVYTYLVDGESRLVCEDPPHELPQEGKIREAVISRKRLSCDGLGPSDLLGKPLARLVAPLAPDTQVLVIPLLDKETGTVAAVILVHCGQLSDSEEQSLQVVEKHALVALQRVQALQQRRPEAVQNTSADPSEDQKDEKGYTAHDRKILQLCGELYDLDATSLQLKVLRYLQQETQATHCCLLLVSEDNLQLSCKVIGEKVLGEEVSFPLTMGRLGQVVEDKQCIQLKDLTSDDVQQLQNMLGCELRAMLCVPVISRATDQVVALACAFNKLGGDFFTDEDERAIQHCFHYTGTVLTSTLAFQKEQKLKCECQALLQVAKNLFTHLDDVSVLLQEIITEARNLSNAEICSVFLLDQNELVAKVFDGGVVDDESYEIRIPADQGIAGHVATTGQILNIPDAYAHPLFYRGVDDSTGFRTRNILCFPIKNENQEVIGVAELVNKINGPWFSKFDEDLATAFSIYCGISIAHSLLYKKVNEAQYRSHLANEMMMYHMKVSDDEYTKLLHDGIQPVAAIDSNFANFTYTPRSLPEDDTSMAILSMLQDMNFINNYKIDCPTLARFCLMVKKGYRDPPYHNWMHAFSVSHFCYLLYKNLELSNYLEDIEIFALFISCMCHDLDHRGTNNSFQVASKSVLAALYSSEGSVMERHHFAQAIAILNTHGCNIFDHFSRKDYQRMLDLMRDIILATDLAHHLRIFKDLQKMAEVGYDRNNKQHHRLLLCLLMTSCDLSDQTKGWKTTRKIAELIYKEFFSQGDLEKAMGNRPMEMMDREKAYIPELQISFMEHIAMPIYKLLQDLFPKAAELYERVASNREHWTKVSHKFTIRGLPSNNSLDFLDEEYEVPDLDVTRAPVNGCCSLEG
# Method: PDE 2 was purified from murine PC12 cells according to Whalin et al. (Molecular Pharmacol. 1991, 39, 711-717).
# PC12 cells from Istituto Zooprofilattico Brescia (Italy) were maintained in […] flasks at 37° C. and 5% CO2 in DMEM containing 5% FCS, 15% horse serum, 1% penicillin, 1% streptomycin and 1% glutamine.
# The cells were expanded paying attention to split them only at reached confluency.
# After washing the cells were detached with 0.05% trypsin/0.02%EDTA and collected in a clean test tube.
# After centrifugation, the cells were suspended in buffer containing Bis-Tris 20 mM, EDTA 2 mM, 2-mercaptoethanol 5 mM, leupeptin 1 μM, pepstatin A 1 μM, PMSF 100 μM, pH 6.5, and homogenised using a Polytron homogeniser.
# After centrifugation, the supernatant fraction was applied to a UNO Q-12 column connected to a Biologic Chromatography system (FPLC, BIO RAD).
# PDE 2 enzyme was eluted with a linear 0.05-1M sodium acetate gradient and elution fractions were collected for PDE 2 enzyme activity assay.
# Fractions containing PDE 2 enzyme activity were pooled, dialysed overnight against distilled water and concentrated 10 times by an Amicon filtration system (using YM10 membrane filter).
# Ethylene glycol was added to a final concentration of 30% v/v and the solution stored at −20° C.
# Enzymatic activity was stable for several weeks under these conditions.
# PDE 2 activity assay was performed using Scintillation Proximity Assay (SPA) Amersham kit consisting of tracer ^3H-cAMP, PDE assay buffer (10×solution: 500 mM TRIS/HCl pH 7.5, 83 mM MgCl2 and 17 mM EGTA) and Yttrium SPA PDE beads (containing 18 mM zinc sulphate).
# (§1) The radioactivity of the beads was measured using a scintillation counter (Packard model MINAXI β TRI-CARB 4000 SERIES).
# PDE 4 enzyme = biological target: T2, PDE 4 enzyme; assay: PDE 4 enzyme inhibition (SPA); format: biochemical; conditions: PDE 4 isolated from U937 cell line; SPA with 3H-cAMP
# T2 construct: % at 10^−7; other: at 10^−7; PDE 4 from U937 cell line; other: PDE 4 isolated from U937 cell line; SPA with 3H-cAMP
# Method: a) PDE 4 Enzyme Purification
# PDE 4 enzyme was isolated from U937 cell line according to the method of Nielson et al. (J. Allergy Clin. Immunol. 1990, vol. 86, pages 801-807) partially modified for the FPLC technique (Fast Protein Liquid Chromatography).
# U-937cell line (Istituto Zooprofilattico Sperimentale, Brescia, Italy) was maintained in RPMI 1640, with 10% foetal calf serum and 2 mM glutamine, at a cell density between 1×10^6 and 8×10^6 cells per ml in an incubator at 37° C. with 5% CO2.
# U937 suspension was homogenised in a buffer containing 10 mM TRIS (tri-(hydroxymethyl)-aminomethane), 5 mM MgCl2, 4 mM EGTA (ethyleneglycol-bis-(β-aminoethylether)-N,N,N′N′-tetra-acetic acid), 5 mM […]-mercaptoethanol, 1 μM leupeptin, 1 μM pepstatin, 1% TRITON x-100, and 100 μM phenylmethyl sulfonyl fluoride (PMSF) at pH 7.8.
# The homogenate was centrifuged and the supernatant was used for the purification of the PDE 4 enzyme; it was seeded on a column connected to a biologic chromatography system (FPLC, BIO RAD).
# PDE 4 enzyme was eluted with a linear gradient, from 0.05 M to 1 M of sodium acetate, and elution fractions were collected for PDE4 activity assay.
# The fractions containing PDE4 activity were collected and, after an overnight dialysis against water to remove sodium acetate, were concentrated to 30% volume with an Amicon filtration system (using YM10 membrane filter).
# Ethylene glycol (30% v/v) was added and the sample was stored at −20° C. in a single aliquot until the use.
# PDE 4 activity assay was performed using Scintillation Proximity Assay (SPA) Amershan kit consisting of tracer ^3H-cAMP, PDE assay buffer (10×solution: 500 mM TRIS/HCl pH 7.5, 83 mM MgCl2 and 17 mM EGTA) and Yttrium SPA PDE beads (containing 18 mM zinc sulphate).
# as §1
# The IC50 values were calculated from concentration-inhibition curves by non linear regression analysis using the program ORIGIN 3.5 (MICROCAL SOFTWARE INC.) and each fitting was the mean±SEM of 3 experiments using different PDE 4 preparations.
IC50 (PDE 2) [nM],IC50 (PDE 4 enzyme) [nM],Compound
> 10000,37,"COc1ccc2c(Cc3c(Cl)cncc3Cl)nnc(-c3cccc(C(=O)O)c3)c2c1 [Compound 2, 3-[4-(3,5-dichloro-pyridin-4-ylmethyl)-7-methoxy-phthalazin-1-yl]-benzoic Acid]"
> 10000,–,"O=C(O)c1cccc(-c2nnc(Cc3c(Cl)cncc3Cl)c3ccc(OC(F)F)cc23)c1 [Compound 8, 3-[4-(3,5-dichloro-pyridin-4-ylmethyl)-7-difluoromethoxy-phthalazin-1-yl]-benzoic Acid]"
> 10000,48,"COc1ccc2c(Cc3c(Cl)cncc3Cl)nnc(-c3sccc3C(=O)O)c2c1 [Compound 10, 2-[4-(3,5-dichloro-pyridin-4-ylmethyl)-7-methoxy-phthalazin-1-yl]-thiophene-3-carboxylic Acid]"
